Assays:
[1] = Plasma stability assay, rat plasma; assay type: in vitro ADME; details: 37° C., 10 μM
[2] = Plasma stability assay, dog plasma; assay type: in vitro ADME; details: 37° C., 2 μM; for % remaining at time point in minutes, 15 min: 15 min (as headed); for % remaining at time point in minutes, 120 min: 120 min (as headed); for % remaining at time point in minutes, 480 min: 480 min (as headed); for % remaining at time point in minutes, 1440 min: 1440 min (as headed)
Protocol: (§1) Plasma stability determination of the test compounds in rat, dog, cynomolgus monkey and human plasma is performed using HPLC-MS. For rat, incubations are carried out in 96-well polypropylene plates in 5 aliquots of 70 μL each (one for each time point). […] Five time points are analyzed (0, 15, 120, 480 and 1440 min). […] All incubations are performed in duplicates. The samples are analyzed by HPLC-MS. The percentage of parent compound remaining after incubation in plasma is determined.

[3] = Plasma stability assay, monkey plasma; assay type: in vitro ADME, cynomolgus monkey; details: 37° C., 2 μM; for % remaining at time point in minutes, 15 min: 15 min (as headed); for % remaining at time point in minutes, 120 min: 120 min (as headed); for % remaining at time point in minutes, 480 min: 480 min (as headed); for % remaining at time point in minutes, 1440 min: 1440 min (as headed)
Protocol: as §1

[4] = Plasma stability assay, human plasma; assay type: in vitro ADME; details: 37° C., 2 μM; for % remaining at time point in minutes, 15 min: 15 min (as headed); for % remaining at time point in minutes, 120 min: 120 min (as headed); for % remaining at time point in minutes, 480 min: 480 min (as headed); for % remaining at time point in minutes, 1440 min: 1440 min (as headed)
Protocol: as §1

[5] = Liver S9 fraction stability, dog; assay type: in vitro ADME; details: 1.0 mg/ml S9 protein, 2 μM, 37° C.
Protocol: (§2) Liver S9 fraction stability determination of the test compounds in dog, cynomolgus monkey and human is performed using HPLC-MS. Test compound (2 μM, 0.1% DMSO, 1% Methanol final concentration) was assessed for stability in a 50 μl phosphate buffer containing 1.0 mg/ml S9 protein from each of the three species and 5 mM D-saccharic acid-1, 4-lactone. Samples were incubated at 37° C. for 60 minutes and the % compound remaining was assessed.

[6] = Liver S9 fraction stability, monkey; assay type: in vitro ADME, cynomolgus monkey; details: 1.0 mg/ml S9 protein, 2 μM, 37° C.
Protocol: as §2

[7] = Liver S9 fraction stability, human; assay type: in vitro ADME; details: 1.0 mg/ml S9 protein, 2 μM, 37° C.
Protocol: as §2

KOR = biological target: T1, KOR (Homo sapiens, UniProt P41145); experiment: Opioid receptor binding assay, KOR ([3H]Diprenorphine); details: KOR, MaxDose 10000 nM
T1 construct: expressed in transfected cells; membranes prepared from them
T1 sequence (P41145 whole entry): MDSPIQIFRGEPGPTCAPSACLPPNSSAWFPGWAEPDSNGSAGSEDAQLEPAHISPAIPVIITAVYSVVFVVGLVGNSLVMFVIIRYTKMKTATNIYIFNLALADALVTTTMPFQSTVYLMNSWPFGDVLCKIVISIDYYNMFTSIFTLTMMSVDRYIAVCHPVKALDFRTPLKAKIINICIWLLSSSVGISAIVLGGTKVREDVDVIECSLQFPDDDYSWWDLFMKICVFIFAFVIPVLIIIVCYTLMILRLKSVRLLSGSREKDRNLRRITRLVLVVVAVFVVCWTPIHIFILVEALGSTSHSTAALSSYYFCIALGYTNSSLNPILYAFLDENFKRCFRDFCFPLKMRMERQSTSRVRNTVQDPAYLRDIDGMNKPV

MOR = biological target: T2, MOR (Homo sapiens, UniProt P35372); experiment: Opioid receptor binding assay, MOR ([3H]DAMGO); details: MOR, MaxDose 10000 nM
T2 construct: expressed in transfected cells; membranes prepared from them
T2 sequence (P35372 whole entry): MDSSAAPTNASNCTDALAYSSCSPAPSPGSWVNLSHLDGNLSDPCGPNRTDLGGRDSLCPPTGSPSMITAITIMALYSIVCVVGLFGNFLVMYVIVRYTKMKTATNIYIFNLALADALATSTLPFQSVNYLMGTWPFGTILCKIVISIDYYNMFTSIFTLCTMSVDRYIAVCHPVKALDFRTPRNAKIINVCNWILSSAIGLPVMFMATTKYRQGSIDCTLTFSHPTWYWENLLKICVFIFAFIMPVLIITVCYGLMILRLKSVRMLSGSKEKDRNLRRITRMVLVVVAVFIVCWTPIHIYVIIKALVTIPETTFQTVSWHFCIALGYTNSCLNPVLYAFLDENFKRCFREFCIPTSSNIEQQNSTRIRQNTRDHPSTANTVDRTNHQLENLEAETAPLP

[8] = Solubility determination in oil (cottonseed oil, sesame oil)
Protocol: A known amount of test substance (˜40 mg) was weighed into the vial, 100 μL of oil was added and heated to 60° C. and then system was slurried to reach equilibrium. […] Extra oil was added into the vial once compound precipitated out and then the system was re-equilibrated at 1000 rpm at room temperature (25° C.). Final concentration was determined by HPLC method as described below in Table 6a and 6b.

[9] = Rat pharmacokinetic studies, intramuscular; assay type: in vivo, male Sprague Dawley Rats; details: rat IM, Sesame oil + 1% Benzyl Alcohol
Protocol: The purpose of this study is to determine the pharmacokinetics of test compounds in plasma, following intramuscular administration to male Sprague Dawley Rats (n=3, unless otherwise specified).
The dose formulation of 400 mg base equivalents/ml in sesame oil+1% benzyl alcohol (unless otherwise specified) was administered by intramuscular injection. The dose volume was determined by the animals' body weight determined on the morning of dosing day.
Each collected blood sample was centrifuged for 4 minutes at 4° C. and 10000 rpm for plasma collection. Plasma was collected and transferred into a pre-labeled PP tube in dry ice at each time point and precipitated immediately using ACN at a ratio of 1:4 (plasma:ACN). Centrifuged again (10 minutes, 12000 rpm) and obtain the supernatant.
After terminal collection, all supernatant was stored at approximately −80° C. until bioanalysis.
LC-MS/MS methods for the quantitative determination of test compound in biological matrix were developed. […] The sample analysis was performed concurrently with a set of calibration standards and two sets of QC samples using the LC-MS/MS method.
Plasma concentration versus time data was analyzed by non-compartmental approaches using the Phoenix WinNonlin 6.3 software program. Cmax, Tmax, T1/2, AUC(0-t), AUC(0-inf), MRT(0-t), MRT(0-inf) and graphs of plasma concentration versus time profile were prepared.

[10] = Dog pharmacokinetic studies, deep intramuscular; assay type: in vivo, Beagle dogs; details: dog IM, Sesame oil + 1% Benzyl Alcohol
[11] = heating temp. 60 °C, obs. temp. 25 °C

Compound	% remaining at time point in minutes, 0 min [1] [%]	% remaining at time point in minutes, 15 min [1] [%]	% remaining at time point in minutes, 0 min [2] [%]	% remaining at time point in minutes, 15 min [2] [%]	% remaining at time point in minutes, 120 min [2] [%]	% remaining at time point in minutes, 480 min [2] [%]	% remaining at time point in minutes, 1440 min [2] [%]	% remaining at time point in minutes, 0 min [3] [%]	% remaining at time point in minutes, 15 min [3] [%]	% remaining at time point in minutes, 120 min [3] [%]	% remaining at time point in minutes, 480 min [3] [%]	% remaining at time point in minutes, 1440 min [3] [%]	% remaining at time point in minutes, 0 min [4] [%]	% remaining at time point in minutes, 15 min [4] [%]	% remaining at time point in minutes, 120 min [4] [%]	% remaining at time point in minutes, 480 min [4] [%]	% remaining at time point in minutes, 1440 min [4] [%]	Liver S9 Fraction Stability % remaining at 60 minutes, Dog [5] [%]	Liver S9 Fraction Stability % remaining at 60 minutes, Monkey [6] [%]	Liver S9 Fraction Stability % remaining at 60 minutes, Human [7] [%]	other results
CCCCCCCCCCCC(=O)OCN1C(=O)CCc2ccc(OCCCCN3CCN(c4cccc(Cl)c4Cl)CC3)cc21 [Aripiprazole lauroxil, reference compound]	100	84	100	103	81.3	78.6	74.3	100	95.2	94.5	75.5	83.2	100	99.7	80	73.2	75.5	66.1	56.6	47.8	% remaining at time point in minutes, 120 min [1]: 85.5%; % remaining at time point in minutes, 480 min [1]: 76.4%; % remaining at time point in minutes, 1440 min [1]: 46%
C=C1CC[C@@]2(O)C3Cc4ccc(OC(=O)OCCCCCCCCCCCC)c5c4[C@@]2(CCN3CC2CC2)[C@H]1O5 [Compound 6, (4aS,7aS,12bS)-3-(cyclopropylmethyl)-4a-hydroxy-7-methylene-2,3,4,4a,5,6,7,7a-octahydro-1H-4,12-methanobenzofuro[3,2-e]isoquinolin-9-yl dodecyl carbonate]	100	31.3	100	89.1	96.9	107.2	101.2	100	88.7	74.3	68.4	70.1	100	97.6	102	109.8	115.1	17.1	0	5.3	% remaining at time point in minutes, 120 min [1]: 7.6%; % remaining at time point in minutes, 480 min [1]: 4%; % remaining at time point in minutes, 1440 min [1]: 1.6%; %Inh@MaxDose (KOR): 99.6%; %Inh@MaxDose (MOR): 102.5%; Approximate Solubility (mg/mL) in Excipient: Cottonseed oil ([8]; Cottonseed oil, heating temp. 60 °C, obs. temp. 25 °C): >397 mg/mL; Approximate Solubility (mg/mL) in Excipient: Sesame oil [8, 11]: >386 mg/mL; AUC0-inf (ng · h/mL) prodrug ([9]; 80 mg/kg): 78.9 ng·h/mL; Half-life t1/2 (hour) prodrug ([9]; 80 mg/kg): 340 h; AUC0-inf (ng · h/mL) prodrug ([9]; 123 mg/kg): 620 ng·h/mL; Half-life t1/2 (hour) prodrug ([9]; 123 mg/kg): 213 h; AUC0-inf (ng · h/mL) prodrug ([9]; 165 mg/kg): 637 ng·h/mL; Half-life t1/2 (hour) prodrug ([9]; 165 mg/kg): 204 h; AUC0-inf (ng · h/mL) prodrug ([10]; 30 mg/kg): 398 ng·h/mL; Half-life t1/2 (hour) prodrug ([10]; 30 mg/kg): 95 h; AUC0-inf (ng · h/mL) prodrug ([10]; 96 mg/kg): 1290 ng·h/mL; Half-life t1/2 (hour) prodrug ([10]; 96 mg/kg): 88 h
C=C1CC[C@@]2(O)C3Cc4ccc(OC(=O)CCCCCCC/C=C/CCCCCCCC)c5c4[C@@]2(CCN3CC2CC2)[C@H]1O5 [Compound 15, (4aS,7aS,12bS)-3-(cyclopropylmethyl)-4a-hydroxy-7-methylene-2,3,4,4a,5,6,7,7a-octahydro-1H-4,12-methanobenzofuro[3,2-e]isoquinolin-9-yl (E)-octadec-9-enoate]	100	72	100	82.5	80.6	90.1	86.1	100	74.5	72.7	80.6	76.5	100	83.3	82.5	107.1	109.0	80.9	76.7	59.8	% remaining at time point in minutes, 120 min [1]: 69.3%; % remaining at time point in minutes, 480 min [1]: 52%; % remaining at time point in minutes, 1440 min [1]: 35%; Approximate Solubility (mg/mL) in Excipient: Sesame oil ([8]; heating temp. 40 °C, obs. temp. 40 °C): <52 mg/mL; Approximate Solubility (mg/mL) in Excipient: Sesame oil [8, 11]: >396.5 mg/mL; AUC0-inf (ng · h/mL) prodrug ([9]; 80 mg/kg): 679 ng·h/mL; AUC0-inf (ng · h/mL) prodrug ([9]; 123 mg/kg): 2574 ng·h/mL; AUC0-inf (ng · h/mL) prodrug ([9]; 165 mg/kg): 2789 ng·h/mL; Half-life t1/2 (hour) prodrug ([9]; 165 mg/kg): 500 h; AUC0-inf (ng · h/mL) prodrug ([10]; 30 mg/kg): 521 ng·h/mL; Half-life t1/2 (hour) prodrug ([10]; 30 mg/kg): 134 h; AUC0-inf (ng · h/mL) prodrug ([10]; 48 mg/kg): 1144 ng·h/mL; Half-life t1/2 (hour) prodrug ([10]; 48 mg/kg): 518 h; AUC0-inf (ng · h/mL) prodrug ([10]; 96 mg/kg): 1353 ng·h/mL; Half-life t1/2 (hour) prodrug ([10]; 96 mg/kg): 162 h
CCCCCCCCCCCCCCCC(=O)OC1CCCn2c1nc(C)c(CCN1CCC(c3noc4cc(F)ccc34)CC1)c2=O (centres unmarked) [Paliperidone palmitate, reference compound]			100	91.2	88.4	95.9	93.1	100	92	89.5	98.4	92.5	100	103.7	97.6	109.1	104.1	56.4	57.4	47.8	

From US10525055B2, “Opioid receptor antagonist prodrugs” (Nirsum Laboratories, Inc., priority 2017, dated 2020)
